According to patent publication US20140243197A1, “CARBAMOYLMETHOXY- AND CARBAMOYLMETHYLTHIO- AND CARBAMOYLMETHYLAMINO BENZAMIDES FOR COMBATING INVERTEBRATE PESTS” (BASF SE, priority 2011, published 2014):

Key:
Plutella xylostella = test: Diamond backmoth leaf-dip test on cabbage leaves, mortality; format: in vivo; details: 3rd instar larvae, cabbage leaves dipped, recorded 72 hours after treatment, read-out: mortality in comparison with untreated controls
Procedure: The active compound was dissolved at the desired concentration in a mixture of 1:1 (vol:vol) distilled water: aceteone. Surfactant (Alkamuls® EL 620) was added at a rate of 0.1% (vol/vol). The test solution was prepared at the day of use.
Leaves of cabbage were dipped in test solution and air-dried. Treated leaves were placed in petri dishes lined with moist filter paper and inoculated with ten 3rd instar larvae. Mortality was recorded 72 hours after treatment. Feeding damages were also recorded using a scale of 0-100%.

Spodoptera eridiana = test: Southern armyworm foliar spray test on lima bean plants, mortality; format: in vivo; details: 96 h, 2nd instar larvae, lima bean foliage sprayed, assessed 4 days after treatment, read-out: mortality in comparison with untreated controls
Procedure: The active compounds were formulated in cyclohexanone as a 10,000 ppm solution supplied in tubes. The tubes were inserted into an automated electrostatic sprayer equipped with an atomizing nozzle and they served as stock solutions for which lower dilutions were made in 50% acetone:50% water (v/v). A nonionic surfactant (Kinetic) was included in the solution at a volume of 0.01% (v/v).
Lima bean plants (variety Sieva) were grown 2 plants to a pot and selected for treatment at the 1st true leaf stage. Test solutions were sprayed onto the foliage by an automated electrostatic plant sprayer equipped with an atomizing spray nozzle. The plants were dried in the sprayer fume hood and then removed from the sprayer. Each pot was placed into perforated plastic bags with a zip closure. About 10 to 11 armyworm larvae were placed into the bag and the bags zipped closed. Test plants were maintained in a growth room at about 25° C. and about 20-40% relative humidity for 4 days, avoiding direct exposure to fluorescent light (24 hour photoperiod) to prevent trapping of heat inside the bags. Mortality and reduced feeding were assessed 4 days after treatment, compared to untreated control plants.

**Q.** How did the mortality at 500 ppm (Plutella xylostella) turn out when `CNC(=O)CONC(=O)c1cc(Cl)cc(C)c1NC(=O)c1cnn(CC(F)(F)F)c1-c1ncccc1Cl` [Compound 1-1, 5-(3-chloro-pyridin-2-yl)-1-(2,2,2-trifluoro-ethyl)-1H-pyrazole-4-carboxylic acid (4-chloro-2-methyl-6-methylcarbamoylmethoxycarbamoyl-phenyl)-amide] was run?
**A.** 100%

**Q.** What about the mortality at 500 ppm (Spodoptera eridiana) of the same molecule?
**A.** 100%
